{"source": "PubChem BioAssay AID1259407", "about": "(Chemical Carcinogenesis Research Information System (CCRIS), 2018)", "tested_on": "CCRIS mutagenicity, Ames/micronucleus/aberration tests", "assay": "CCRIS mutagenicity studies", "key": {"[1]": {"conditions": "Test System: AMES SALMONELLA TYPHIMURIUM, Strain/Indicator: TA98, Metabolic Activation: NONE, Method: PREINCUBATION"}, "[2]": {"conditions": "Test System: AMES SALMONELLA TYPHIMURIUM, Strain/Indicator: TA100, Metabolic Activation: NONE, Method: PREINCUBATION"}, "[3]": {"conditions": "Test System: AMES SALMONELLA TYPHIMURIUM, Strain/Indicator: TA100, Metabolic Activation: RAT, LIVER, S-9, AROCLOR 1254, Method: PREINCUBATION"}, "[4]": {"conditions": "Test System: AMES SALMONELLA TYPHIMURIUM, Strain/Indicator: TA98, Metabolic Activation: NONE, Method: STANDARD PLATE"}, "[5]": {"conditions": "Test System: AMES SALMONELLA TYPHIMURIUM, Strain/Indicator: TA100, Metabolic Activation: NONE, Method: STANDARD PLATE"}}, "note": "Activity calls are given as the source filed them. How the calls were made is not given here.", "data": [{"smiles": "Cc1c(C(C)C)c(=O)n(-c2ccccc2)n1C", "values": [{"measurement": "mutagenic call", "setting": "Test System: AMES SALMONELLA TYPHIMURIUM, Strain/Indicator: TA98, Metabolic Activation: GUINEA PIG, LIVER, S-9, PCB, Method: PREINCUBATION", "value": "inactive; negative"}, {"measurement": "mutagenic call", "setting": "Test System: AMES SALMONELLA TYPHIMURIUM, Strain/Indicator: TA98, Metabolic Activation: HAMSTER, LIVER, S-9, PCB, Method: PREINCUBATION", "value": "inactive; negative"}, {"measurement": "mutagenic call", "setting": "Test System: AMES SALMONELLA TYPHIMURIUM, Strain/Indicator: TA98, Metabolic Activation: MOUSE, LIVER, S-9, PCB, Method: PREINCUBATION", "value": "inactive; negative"}, {"measurement": "mutagenic call", "setting": "[1]", "value": "inactive; negative"}, {"measurement": "mutagenic call", "setting": "Test System: AMES SALMONELLA TYPHIMURIUM, Strain/Indicator: TA98, Metabolic Activation: RAT, LIVER, S-9, PCB, Method: PREINCUBATION", "value": "inactive; negative"}, {"measurement": "mutagenic call", "setting": "Test System: AMES SALMONELLA TYPHIMURIUM, Strain/Indicator: TA100, Metabolic Activation: GUINEA PIG, LIVER, S-9, PCB, Method: PREINCUBATION", "value": "inactive; negative"}, {"measurement": "mutagenic call", "setting": "Test System: AMES SALMONELLA TYPHIMURIUM, Strain/Indicator: TA100, Metabolic Activation: HAMSTER, LIVER, S-9, PCB, Method: PREINCUBATION", "value": "inactive; negative"}, {"measurement": "mutagenic call", "setting": "Test System: AMES SALMONELLA TYPHIMURIUM, Strain/Indicator: TA100, Metabolic Activation: MOUSE, LIVER, S-9, PCB, Method: PREINCUBATION", "value": "inactive; negative"}, {"measurement": "mutagenic call", "setting": "[2]", "value": "inactive; negative"}, {"measurement": "mutagenic call", "setting": "Test System: AMES SALMONELLA TYPHIMURIUM, Strain/Indicator: TA100, Metabolic Activation: RAT, LIVER, S-9, PCB, Method: PREINCUBATION", "value": "inactive; negative"}]}, {"smiles": "CCCCNNCCCC", "values": [{"measurement": "mutagenic call", "setting": "Test System: AMES SALMONELLA TYPHIMURIUM, Strain/Indicator: TA100, Metabolic Activation: NONE, Method: PREINCUBATION (11 HR GROWTH PERIOD FOR BACTERIA)", "value": "active; positive"}, {"measurement": "mutagenic call", "setting": "Test System: AMES SALMONELLA TYPHIMURIUM, Strain/Indicator: TA100, Metabolic Activation: RAT, LIVER, S-9, PCB, Method: PREINCUBATION (11 HR GROWTH PERIOD FOR BACTERIA)", "value": "inactive; negative"}, {"measurement": "mutagenic call", "setting": "Test System: AMES SALMONELLA TYPHIMURIUM, Strain/Indicator: TA102, Metabolic Activation: NONE, Method: PREINCUBATION (5 OR 7 HR GROWTH PERIOD FOR BACTERIA)", "value": "active; positive"}, {"measurement": "mutagenic call", "setting": "Test System: AMES SALMONELLA TYPHIMURIUM, Strain/Indicator: TA102, Metabolic Activation: RAT, LIVER, S-9, PCB, Method: PREINCUBATION (5 OR 7 HR GROWTH PERIOD FOR BACTERIA)", "value": "active; positive"}]}, {"smiles": "Nc1[nH]c(=O)nc2c1ncn2[C@H]1C[C@H](O)[C@@H](CO)O1", "values": [{"measurement": "mutagenic call", "setting": "[2]", "value": "inactive; negative"}]}, {"smiles": "O=C/C=C/c1ccccc1[N+](=O)[O-]", "values": [{"measurement": "mutagenic call", "setting": "[2]", "value": "active; positive"}, {"measurement": "mutagenic call", "setting": "[3]", "value": "active; positive"}]}, {"smiles": "O=[N+]([O-])c1ccc(Cl)c(Cl)c1", "values": [{"measurement": "mutagenic call", "setting": "End Point: IN VITRO CHROMOSOMAL ABERRATIONS, Test System: HUMAN PERIPHERAL LYMPHOCYTES, Metabolic Activation: NONE", "value": "inactive; negative"}, {"measurement": "mutagenic call", "setting": "End Point: In vitro chromosomal aberrations, Test System: Chinese hamster lung (CHL/IU) cells, Metabolic Activation: Rat, Liver, S9, Phenobarbital and 5,6-benzoflavone", "value": "active; positive (structural changes). precipitation observed in culture medium at 0.16"}, {"measurement": "mutagenic call", "setting": "[1]", "value": "inactive; negative"}, {"measurement": "mutagenic call", "setting": "[4]", "value": "inactive; negative"}, {"measurement": "mutagenic call", "setting": "Test System: AMES SALMONELLA TYPHIMURIUM, Strain/Indicator: TA98, Metabolic Activation: RAT LIVER S-9, AROCLOR 1254 (10%), Method: STANDARD PLATE", "value": "inactive; negative"}, {"measurement": "mutagenic call", "setting": "Test System: AMES SALMONELLA TYPHIMURIUM, Strain/Indicator: TA98, Metabolic Activation: RAT, LIVER, S-9, KANECHLOR 500, Method: PREINCUBATION", "value": "inactive; negative"}, {"measurement": "mutagenic call", "setting": "[2]", "value": "active; positive"}, {"measurement": "mutagenic call", "setting": "[5]", "value": "inactive; negative"}, {"measurement": "mutagenic call", "setting": "Test System: AMES SALMONELLA TYPHIMURIUM, Strain/Indicator: TA100, Metabolic Activation: RAT, LIVER, S-9, KANECHLOR 500, Method: PREINCUBATION", "value": "active; positive"}, {"measurement": "mutagenic call", "setting": "Test System: Ames Salmonella typhimurium, Strain/Indicator: TA98, Metabolic Activation: None, Method: Preincubaton", "value": "inactive; negative"}, {"measurement": "mutagenic call", "setting": "Test System: Ames Salmonella typhimurium, Strain/Indicator: TA98, Metabolic Activation: Rat, Liver, S9, Sodium phenobarbital and 5,6-benzoflavone (10%), Method: Preincubaton", "value": "inactive; negative"}, {"measurement": "mutagenic call", "setting": "Test System: Ames Salmonella typhimurium, Strain/Indicator: TA100, Metabolic Activation: None, Method: Preincubaton", "value": "active; positive"}, {"measurement": "mutagenic call", "setting": "Test System: Ames Salmonella typhimurium, Strain/Indicator: TA100, Metabolic Activation: Rat, Liver, S9, Sodium phenobarbital and 5,6-benzoflavone (10%), Method: Preincubaton", "value": "active; positive"}, {"measurement": "mutagenic call", "setting": "Test System: Ames Salmonella typhimurium, Strain/Indicator: TA1535, Metabolic Activation: None, Method: Preincubaton", "value": "inactive; negative"}, {"measurement": "mutagenic call", "setting": "Test System: Ames Salmonella typhimurium, Strain/Indicator: TA1535, Metabolic Activation: Rat, Liver, S9, Sodium phenobarbital and 5,6-benzoflavone (10%), Method: Preincubaton", "value": "inactive; negative"}, {"measurement": "mutagenic call", "setting": "Test System: Ames Salmonella typhimurium, Strain/Indicator: TA1537, Metabolic Activation: None, Method: Preincubaton", "value": "inactive; negative"}, {"measurement": "mutagenic call", "setting": "Test System: Ames Salmonella typhimurium, Strain/Indicator: TA1537, Metabolic Activation: Rat, Liver, S9, Sodium phenobarbital and 5,6-benzoflavone (10%), Method: Preincubaton", "value": "inactive; negative"}, {"measurement": "mutagenic call", "setting": "Test System: E. coli, Strain/Indicator: WP2uvrA/pKM101, Metabolic Activation: None, Method: Preincubaton", "value": "inactive; negative"}, {"measurement": "mutagenic call", "setting": "Test System: E. coli, Strain/Indicator: WP2uvrA/pKM101, Metabolic Activation: Rat, Liver, S9, Sodium phenobarbital and 5,6-benzoflavone (10%), Method: Preincubaton", "value": "inactive; negative"}]}, {"smiles": "COc1ccc(C(=O)N2CCN(c3ccc4c(c3)CCC(=O)N4)CC2)cc1OC", "values": [{"measurement": "mutagenic call", "setting": "Test System: AMES SALMONELLA TYPHIMURIUM, Strain/Indicator: TA97, Metabolic Activation: NONE, Method: STANDARD PLATE", "value": "inactive; negative"}, {"measurement": "mutagenic call", "setting": "Test System: AMES SALMONELLA TYPHIMURIUM, Strain/Indicator: TA97, Metabolic Activation: S-9, Method: STANDARD PLATE", "value": "inactive; negative"}, {"measurement": "mutagenic call", "setting": "[1]", "value": "inactive; negative"}, {"measurement": "mutagenic call", "setting": "[4]", "value": "inactive; negative"}, {"measurement": "mutagenic call", "setting": "Test System: AMES SALMONELLA TYPHIMURIUM, Strain/Indicator: TA98, Metabolic Activation: RAT, LIVER, S-9, Method: PREINCUBATION", "value": "inactive; negative"}, {"measurement": "mutagenic call", "setting": "Test System: AMES SALMONELLA TYPHIMURIUM, Strain/Indicator: TA98, Metabolic Activation: S-9, Method: STANDARD PLATE", "value": "inactive; negative"}, {"measurement": "mutagenic call", "setting": "[2]", "value": "inactive; negative"}, {"measurement": "mutagenic call", "setting": "[5]", "value": "inactive; negative"}, {"measurement": "mutagenic call", "setting": "Test System: AMES SALMONELLA TYPHIMURIUM, Strain/Indicator: TA100, Metabolic Activation: RAT, LIVER, S-9, Method: PREINCUBATION", "value": "inactive; negative"}, {"measurement": "mutagenic call", "setting": "Test System: AMES SALMONELLA TYPHIMURIUM, Strain/Indicator: TA102, Metabolic Activation: NONE, Method: STANDARD PLATE", "value": "inactive; negative"}, {"measurement": "mutagenic call", "setting": "Test System: AMES SALMONELLA TYPHIMURIUM, Strain/Indicator: TA102, Metabolic Activation: S-9, Method: STANDARD PLATE", "value": "inactive; negative"}, {"measurement": "mutagenic call", "setting": "Test System: AMES SALMONELLA TYPHIMURIUM, Strain/Indicator: TA1535, Metabolic Activation: NONE, Method: PREINCUBATION", "value": "inactive; negative"}, {"measurement": "mutagenic call", "setting": "Test System: AMES SALMONELLA TYPHIMURIUM, Strain/Indicator: TA1535, Metabolic Activation: RAT, LIVER, S-9, Method: PREINCUBATION", "value": "inactive; negative"}, {"measurement": "mutagenic call", "setting": "Test System: AMES SALMONELLA TYPHIMURIUM, Strain/Indicator: TA1537, Metabolic Activation: NONE, Method: PREINCUBATION", "value": "inactive; negative"}, {"measurement": "mutagenic call", "setting": "Test System: AMES SALMONELLA TYPHIMURIUM, Strain/Indicator: TA1537, Metabolic Activation: RAT, LIVER, S-9, Method: PREINCUBATION", "value": "inactive; negative"}, {"measurement": "mutagenic call", "setting": "Test System: AMES SALMONELLA TYPHIMURIUM, Strain/Indicator: TA1538, Metabolic Activation: NONE, Method: PREINCUBATION", "value": "inactive; negative"}, {"measurement": "mutagenic call", "setting": "Test System: AMES SALMONELLA TYPHIMURIUM, Strain/Indicator: TA1538, Metabolic Activation: RAT, LIVER, S-9, Method: PREINCUBATION", "value": "inactive; negative"}, {"measurement": "mutagenic call", "setting": "Test System: E. COLI, Strain/Indicator: WP2 UVRA, Metabolic Activation: NONE, Method: PREINCUBATION", "value": "inactive; negative"}, {"measurement": "mutagenic call", "setting": "Test System: E. COLI, Strain/Indicator: WP2 UVRA, Metabolic Activation: RAT, LIVER, S-9, Method: PREINCUBATION", "value": "inactive; negative"}]}, {"smiles": "CCn1c2ccccc2c2ccccc21", "values": [{"measurement": "mutagenic call", "setting": "Test System: UDS PRIMARY RAT HEPATOCYTES, Strain/Indicator: THY INCORP, Metabolic Activation: NONE, Method: AUTORADIOGRAPHY", "value": "active; positive"}]}, {"smiles": "O[C@H]1C=Cc2ccc3c(sc4ccccc43)c2[C@@H]1O", "values": [{"measurement": "mutagenic call", "setting": "[3]", "value": "inactive; negative"}]}]}
